Assay [1] has as its target Vascular endothelial growth factor receptor 2 (Homo sapiens, UniProt P35968). Put plainly: Inhibition of human recombinant VEGFR2 expressed in Sf9 cells after 60 mins.
Assay [2] deals with Jurkat. Kind of assay: Antiproliferative activity against human Jurkat cells after 48 hrs by celltiter glo assay.
The target of assay [3] is Mast/stem cell growth factor receptor Kit (Homo sapiens, UniProt P10721). Kind of assay: Inhibition of human recombinant c-kit kinase in cell free system after 30 mins.
Chain of Mast/stem cell growth factor receptor Kit (P10721 whole entry): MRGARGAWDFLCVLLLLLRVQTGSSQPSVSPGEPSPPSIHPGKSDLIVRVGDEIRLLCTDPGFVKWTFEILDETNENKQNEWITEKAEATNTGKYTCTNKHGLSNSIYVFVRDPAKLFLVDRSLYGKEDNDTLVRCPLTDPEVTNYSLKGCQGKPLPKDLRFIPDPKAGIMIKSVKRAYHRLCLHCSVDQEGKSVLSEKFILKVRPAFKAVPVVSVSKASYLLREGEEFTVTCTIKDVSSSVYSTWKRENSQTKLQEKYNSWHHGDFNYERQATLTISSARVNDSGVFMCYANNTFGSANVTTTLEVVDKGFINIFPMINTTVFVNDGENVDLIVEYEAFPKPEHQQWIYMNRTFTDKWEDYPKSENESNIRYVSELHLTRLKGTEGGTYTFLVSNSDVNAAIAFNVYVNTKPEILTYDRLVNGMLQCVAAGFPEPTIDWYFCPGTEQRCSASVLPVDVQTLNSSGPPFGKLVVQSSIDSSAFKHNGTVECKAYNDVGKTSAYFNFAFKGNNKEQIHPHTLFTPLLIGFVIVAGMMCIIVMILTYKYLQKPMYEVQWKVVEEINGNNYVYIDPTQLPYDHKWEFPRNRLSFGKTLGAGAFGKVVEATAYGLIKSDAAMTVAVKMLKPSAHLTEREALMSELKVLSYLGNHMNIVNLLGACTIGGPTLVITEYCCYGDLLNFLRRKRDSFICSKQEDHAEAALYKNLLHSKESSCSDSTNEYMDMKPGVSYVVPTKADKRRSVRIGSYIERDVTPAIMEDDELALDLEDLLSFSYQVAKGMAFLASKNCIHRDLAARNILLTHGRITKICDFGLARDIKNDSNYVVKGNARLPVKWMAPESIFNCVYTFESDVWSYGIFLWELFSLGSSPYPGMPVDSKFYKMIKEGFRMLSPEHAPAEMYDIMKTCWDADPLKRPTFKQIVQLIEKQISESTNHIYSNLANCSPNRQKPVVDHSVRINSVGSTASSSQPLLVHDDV
Assay [4] deals with Vascular endothelial growth factor receptor 3 (Homo sapiens, UniProt P35916). Kind of assay: Inhibition of human recombinant VEGFR3 in cell free system after 90 mins.
Chain of Vascular endothelial growth factor receptor 3 (P35916 whole entry): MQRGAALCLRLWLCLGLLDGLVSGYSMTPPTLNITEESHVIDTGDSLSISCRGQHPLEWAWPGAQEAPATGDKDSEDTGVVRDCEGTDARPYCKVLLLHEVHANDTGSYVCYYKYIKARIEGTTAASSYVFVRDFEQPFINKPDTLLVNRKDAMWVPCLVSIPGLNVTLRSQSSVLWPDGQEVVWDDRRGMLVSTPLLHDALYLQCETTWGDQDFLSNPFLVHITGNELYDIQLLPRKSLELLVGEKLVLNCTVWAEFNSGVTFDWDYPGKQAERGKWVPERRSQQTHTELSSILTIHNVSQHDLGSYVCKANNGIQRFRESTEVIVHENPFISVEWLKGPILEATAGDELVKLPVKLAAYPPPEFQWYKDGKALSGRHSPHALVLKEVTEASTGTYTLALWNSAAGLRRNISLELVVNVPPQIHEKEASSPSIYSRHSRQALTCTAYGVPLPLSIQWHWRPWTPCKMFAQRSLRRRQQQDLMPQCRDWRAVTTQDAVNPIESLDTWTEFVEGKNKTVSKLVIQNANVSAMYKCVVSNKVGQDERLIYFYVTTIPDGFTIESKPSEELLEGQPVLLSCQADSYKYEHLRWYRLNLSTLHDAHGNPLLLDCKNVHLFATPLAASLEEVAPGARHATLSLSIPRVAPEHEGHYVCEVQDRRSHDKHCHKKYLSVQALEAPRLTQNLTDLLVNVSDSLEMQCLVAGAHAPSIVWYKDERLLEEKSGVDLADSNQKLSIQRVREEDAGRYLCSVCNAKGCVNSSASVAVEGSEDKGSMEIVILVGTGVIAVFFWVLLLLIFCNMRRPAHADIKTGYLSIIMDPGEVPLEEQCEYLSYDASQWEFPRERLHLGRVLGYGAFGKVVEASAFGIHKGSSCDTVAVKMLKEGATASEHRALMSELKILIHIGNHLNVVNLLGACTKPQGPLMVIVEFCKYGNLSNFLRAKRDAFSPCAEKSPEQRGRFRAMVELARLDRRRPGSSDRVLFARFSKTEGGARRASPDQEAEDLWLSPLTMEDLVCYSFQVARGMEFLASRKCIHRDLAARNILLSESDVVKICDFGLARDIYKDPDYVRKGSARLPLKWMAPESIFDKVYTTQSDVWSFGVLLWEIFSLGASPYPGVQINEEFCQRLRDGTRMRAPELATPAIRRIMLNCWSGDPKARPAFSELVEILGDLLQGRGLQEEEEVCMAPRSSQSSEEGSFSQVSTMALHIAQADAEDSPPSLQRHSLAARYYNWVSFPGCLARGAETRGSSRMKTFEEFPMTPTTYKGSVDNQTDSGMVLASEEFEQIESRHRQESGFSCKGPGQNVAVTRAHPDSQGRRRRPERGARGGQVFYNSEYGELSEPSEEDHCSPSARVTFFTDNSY
In assay [5] the test system is Jurkat. Put plainly: Antiproliferative activity against human Jurkat cells after 24 hrs by celltiter glo assay.
Assay [6] has as its target Dual specificity mitogen-activated protein kinase kinase 1 (Homo sapiens, UniProt Q02750). Kind of assay: Inhibition of human recombinant MEK1 expressed in insect cells after 20 mins.
For assay [7], the target named is T1, Receptor-type tyrosine-protein kinase FLT3 (Homo sapiens, UniProt P36888).
T1 sequence (P36888 whole entry): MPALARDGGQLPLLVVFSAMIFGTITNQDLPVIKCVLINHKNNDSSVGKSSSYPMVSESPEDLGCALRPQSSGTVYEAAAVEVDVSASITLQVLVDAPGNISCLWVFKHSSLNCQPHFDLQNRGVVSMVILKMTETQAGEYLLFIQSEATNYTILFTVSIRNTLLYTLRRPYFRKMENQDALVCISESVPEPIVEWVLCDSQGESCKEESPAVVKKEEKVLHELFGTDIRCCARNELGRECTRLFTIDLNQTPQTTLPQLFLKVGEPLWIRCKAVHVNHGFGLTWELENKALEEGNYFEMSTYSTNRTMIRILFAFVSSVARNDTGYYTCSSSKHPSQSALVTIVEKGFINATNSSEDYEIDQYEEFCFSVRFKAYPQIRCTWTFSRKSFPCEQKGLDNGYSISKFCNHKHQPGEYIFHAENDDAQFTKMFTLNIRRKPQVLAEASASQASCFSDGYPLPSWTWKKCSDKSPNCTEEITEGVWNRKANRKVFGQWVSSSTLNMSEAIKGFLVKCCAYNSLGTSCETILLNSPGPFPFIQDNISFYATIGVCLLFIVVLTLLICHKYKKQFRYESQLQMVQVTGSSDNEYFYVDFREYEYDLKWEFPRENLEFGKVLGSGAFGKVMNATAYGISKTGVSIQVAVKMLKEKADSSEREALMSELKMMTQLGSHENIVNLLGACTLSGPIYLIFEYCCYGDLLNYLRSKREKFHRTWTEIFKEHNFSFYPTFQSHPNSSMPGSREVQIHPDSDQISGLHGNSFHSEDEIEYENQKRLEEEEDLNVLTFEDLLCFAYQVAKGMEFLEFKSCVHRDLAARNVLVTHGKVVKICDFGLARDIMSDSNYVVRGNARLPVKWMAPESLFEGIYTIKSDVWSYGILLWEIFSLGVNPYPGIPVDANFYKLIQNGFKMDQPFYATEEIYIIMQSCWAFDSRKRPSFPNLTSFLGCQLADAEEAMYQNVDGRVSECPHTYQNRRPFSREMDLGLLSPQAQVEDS
Kind of assay: Inhibition of human recombinant FLT-3 kinase expressed in insect cells after 90 mins.

The target of assay [8] is Vascular endothelial growth factor receptor 1 (Homo sapiens, UniProt P17948). Kind of assay: Inhibition of human recombinant VEGFR1 expressed in Sf9 cells after 10 mins.
In assay [9] the target is Platelet-derived growth factor receptor alpha (Homo sapiens, UniProt P16234). Put plainly: Inhibition of human recombinant PDGFRalpha in cell free system after 60 mins.
Assay [10] concerns the target Glycogen synthase kinase-3 beta (Homo sapiens, UniProt P49841). Put plainly: Inhibition of human recombinant GSK3-beta in cell free system after 90 mins.
The target in assay [11] is Mitogen-activated protein kinase 1 (Homo sapiens, UniProt P28482). Put plainly: Inhibition of human recombinant ERK2 expressed in E.coli after 15 mins.
In assay [12] the target is Glycogen synthase kinase-3 alpha (Homo sapiens, UniProt P49840). Kind of assay: Inhibition of human recombinant GSK3alpha in cell free system after 60 mins.
Chain of Glycogen synthase kinase-3 alpha (P49840 whole entry): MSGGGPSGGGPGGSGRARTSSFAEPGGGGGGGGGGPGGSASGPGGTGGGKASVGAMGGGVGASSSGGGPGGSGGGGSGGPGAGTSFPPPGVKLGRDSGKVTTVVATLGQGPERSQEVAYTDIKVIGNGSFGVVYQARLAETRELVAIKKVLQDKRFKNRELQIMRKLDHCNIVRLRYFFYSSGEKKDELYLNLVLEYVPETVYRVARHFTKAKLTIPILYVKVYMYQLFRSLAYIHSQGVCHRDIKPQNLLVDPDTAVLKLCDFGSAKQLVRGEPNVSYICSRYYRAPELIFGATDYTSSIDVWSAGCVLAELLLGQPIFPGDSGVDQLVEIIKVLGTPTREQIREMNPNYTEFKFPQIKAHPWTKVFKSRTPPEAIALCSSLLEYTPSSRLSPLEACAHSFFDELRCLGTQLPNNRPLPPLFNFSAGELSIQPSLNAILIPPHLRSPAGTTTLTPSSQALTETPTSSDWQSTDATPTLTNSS
Assay [13] concerns the target Mitogen-activated protein kinase 7 (Homo sapiens, UniProt Q13164). Kind of assay: Inhibition of human recombinant ERK5 in cell free system after 90 mins.
Assay [14] addresses Mitogen-activated protein kinase 3 (Homo sapiens, UniProt P27361). Put plainly: Inhibition of human recombinant ERK1 expressed in E.coli after 30 mins.
Assay [15] addresses Platelet-derived growth factor receptor beta (Homo sapiens, UniProt P09619). Put plainly: Inhibition of human recombinant PDGFRbeta expressed in insect cells after 30 mins.
Assay [16] deals with HUVEC. Kind of assay: Antiangiogenic activity against HUVEC co-cultured with vascular smooth muscle cells assessed as inhibition of organotypic capillary network formation at 33 uM after 72 hrs. The assay is classed as functional, cell-based. The following applies: Homo sapiens.
For assay [17], the system named is HUVEC. Put plainly: Antiangiogenic activity against HUVEC co-cultured with vascular smooth muscle cells assessed as inhibition of tube formation at 33 uM after 72 hrs. The following applies: Homo sapiens. The assay is classed as functional, cell-based.
Assay [18] deals with HUVEC. Put plainly: Antiangiogenic activity against HUVEC co-cultured with vascular smooth muscle cells assessed as inhibition of tube formation at 11 uM after 72 hrs. The assay is classed as functional, cell-based. The following applies: Homo sapiens.
The subject of assay [19] is HUVEC. Put plainly: Antiangiogenic activity against HUVEC co-cultured with vascular smooth muscle cells assessed as inhibition of organotypic capillary network formation at 11 uM after 72 hrs. The assay is classed as functional, cell-based. As to conditions: Homo sapiens.
In assay [20] the test system is HUVEC. Kind of assay: Antiangiogenic activity against HUVEC co-cultured with vascular smooth muscle cells assessed as inhibition of tube formation upto 100 uM after 72 hrs. The assay is classed as functional, cell-based. As to conditions: Homo sapiens.
The test system of assay [21] is HUVEC. Kind of assay: Antiangiogenic activity against HUVEC co-cultured with vascular smooth muscle cells assessed as inhibition of organotypic capillary network formation upto 100 uM after 72 hrs. The assay is classed as functional, cell-based. The following applies: Homo sapiens.

This is an account of results in ChEMBL document CHEMBL1667852, “Isosteric replacement of the Z-enone with haloethyl ketone and E-enone in a resorcylic acid lactone series and biological evaluation” (Bioorg Med Chem Lett, 2011).

Calls of active or inactive are those of the source. No cut-off for these calls is given here.

Chain of Dual specificity mitogen-activated protein kinase kinase 1 (Q02750 whole entry): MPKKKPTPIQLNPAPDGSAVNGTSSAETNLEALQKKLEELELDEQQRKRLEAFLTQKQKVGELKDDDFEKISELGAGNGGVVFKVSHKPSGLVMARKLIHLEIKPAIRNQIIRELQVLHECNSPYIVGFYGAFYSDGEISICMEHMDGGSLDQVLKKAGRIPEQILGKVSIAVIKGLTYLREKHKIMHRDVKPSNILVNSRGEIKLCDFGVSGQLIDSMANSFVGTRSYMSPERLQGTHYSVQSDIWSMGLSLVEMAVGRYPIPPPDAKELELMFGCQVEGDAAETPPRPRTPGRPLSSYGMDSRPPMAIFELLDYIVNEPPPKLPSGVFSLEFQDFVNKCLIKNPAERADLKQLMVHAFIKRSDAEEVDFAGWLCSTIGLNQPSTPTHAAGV
Chain of Mitogen-activated protein kinase 3 (P27361 whole entry): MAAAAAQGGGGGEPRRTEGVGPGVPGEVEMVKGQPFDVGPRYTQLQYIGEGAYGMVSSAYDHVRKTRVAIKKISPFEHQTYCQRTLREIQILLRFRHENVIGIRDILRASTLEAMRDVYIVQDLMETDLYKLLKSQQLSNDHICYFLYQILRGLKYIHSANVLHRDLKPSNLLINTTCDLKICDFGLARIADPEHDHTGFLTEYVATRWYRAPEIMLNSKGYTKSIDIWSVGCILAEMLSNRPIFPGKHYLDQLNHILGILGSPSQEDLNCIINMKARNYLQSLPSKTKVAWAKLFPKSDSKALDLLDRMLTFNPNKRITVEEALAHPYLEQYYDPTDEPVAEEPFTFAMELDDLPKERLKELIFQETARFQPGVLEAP
Chain of Vascular endothelial growth factor receptor 2 (P35968 whole entry): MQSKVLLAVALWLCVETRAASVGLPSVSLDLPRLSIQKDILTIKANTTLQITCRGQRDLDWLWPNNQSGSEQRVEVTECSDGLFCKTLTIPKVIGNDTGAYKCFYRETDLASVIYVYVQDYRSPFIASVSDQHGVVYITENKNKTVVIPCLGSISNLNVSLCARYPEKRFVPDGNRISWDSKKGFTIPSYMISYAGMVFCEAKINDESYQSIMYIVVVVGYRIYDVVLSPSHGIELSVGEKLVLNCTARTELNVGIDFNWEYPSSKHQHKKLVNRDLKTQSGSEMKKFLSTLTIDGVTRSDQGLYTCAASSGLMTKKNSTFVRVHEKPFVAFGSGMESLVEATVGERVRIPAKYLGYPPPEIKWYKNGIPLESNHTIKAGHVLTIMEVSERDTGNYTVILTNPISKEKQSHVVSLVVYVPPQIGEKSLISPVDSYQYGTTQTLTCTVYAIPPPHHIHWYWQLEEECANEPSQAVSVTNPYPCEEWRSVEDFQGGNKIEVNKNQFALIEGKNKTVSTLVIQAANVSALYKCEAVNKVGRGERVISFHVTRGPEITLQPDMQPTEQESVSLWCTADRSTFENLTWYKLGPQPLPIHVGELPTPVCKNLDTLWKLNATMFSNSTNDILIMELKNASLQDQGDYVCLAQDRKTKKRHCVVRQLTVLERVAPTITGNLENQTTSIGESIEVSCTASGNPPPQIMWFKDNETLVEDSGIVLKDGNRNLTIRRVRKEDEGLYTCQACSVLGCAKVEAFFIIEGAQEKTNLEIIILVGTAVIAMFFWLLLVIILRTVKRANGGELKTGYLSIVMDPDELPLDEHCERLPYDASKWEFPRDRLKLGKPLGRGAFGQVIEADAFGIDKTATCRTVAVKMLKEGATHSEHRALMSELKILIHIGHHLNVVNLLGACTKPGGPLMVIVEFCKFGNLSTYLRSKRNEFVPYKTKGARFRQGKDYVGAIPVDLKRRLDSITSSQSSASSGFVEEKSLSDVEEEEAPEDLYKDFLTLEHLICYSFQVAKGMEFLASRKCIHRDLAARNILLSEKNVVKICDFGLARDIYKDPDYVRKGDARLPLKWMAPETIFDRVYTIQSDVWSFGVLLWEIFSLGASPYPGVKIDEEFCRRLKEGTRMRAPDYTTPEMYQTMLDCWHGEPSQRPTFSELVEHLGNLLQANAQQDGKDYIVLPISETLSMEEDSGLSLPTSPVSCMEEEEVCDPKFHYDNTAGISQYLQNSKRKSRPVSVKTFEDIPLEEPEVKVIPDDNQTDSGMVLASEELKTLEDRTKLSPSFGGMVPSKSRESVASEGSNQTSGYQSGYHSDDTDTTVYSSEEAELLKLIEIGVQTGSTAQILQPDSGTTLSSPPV

On to `COc1cc(O)c2c(c1)/C=C\CCCC(=O)C[C@H](Cl)C[C@H](C)OC2=O`, for which the IC50 in assay [1] was 82000 nM; in the assay with Jurkat [2], 8.8 µM; in [3], 100 µM; in [4], above 100000 nM; in the assay with Jurkat [5] it was 9.5 µM.

With `COc1cc(O)c2c(c1)CCCCCC(=O)/C=C\C[C@H](C)OC2=O`, the IC50 in assay [1] is 540 nM; in the assay on Jurkat [2], 11 µM; in assay [6], 17 µM; in [7], 850 nM; in assay [3] it was 4.1 µM; in assay [8], above 100 µM. Further, the IC50 in [9] amounted to 440 nM; in assay [4], 1200 nM; with Jurkat [5] it was 26 µM.

Take `COc1cc(O)c2c(c1)/C=C/C[C@@H](O)[C@H](O)C(=O)/C=C\C[C@H](C)OC2=O`: the concentration for half-maximal inhibition (IC50) was 0.49 nM in assay [1]; 5.5 µM in the assay with Jurkat [2]; 0.002 µM in assay [6]; 18 µM in assay [10]; 4.9 nM in assay [7]; 0.0096 µM in [3]. In addition, the IC50 was 1.3 µM in assay [11]; 1.9 µM in assay [12]; 0.012 µM in assay [8]; above 100 µM in assay [13]; 0.24 nM in assay [9]; 0.5 nM in [4]. Further, the figures for the 50% inhibitory concentration (IC50) (with Jurkat [5]; in [14]) were 7 µM and 1.4 µM, respectively.

For `COc1cc(O)c2c(c1)/C=C/CCCC(=O)C[C@H](Cl)C[C@H](C)OC2=O`, the IC50 is 9.2 µM in the assay with Jurkat [2], above 100 µM in assay [3], above 100000 nM in [4] and 10.9 µM in the assay with Jurkat [5].

Regarding `COc1cc(O)c2c(c1)/C=C/CCCC(=O)/C=C/C[C@H](C)OC2=O`, the IC50 in assay [1] is 1000 nM; in the assay with Jurkat [2] it was 8.9 µM; in assay [6], 22 µM; in assay [10], above 100 µM; in assay [7], 330 nM; in assay [3], 1.3 µM. In addition, the IC50 was above 100 µM in assay [11]; above 100 µM in assay [12]; 9.2 µM in assay [15]; 51 µM in assay [8]; 27 nM in assay [9]; 1400 nM in [4]. In addition, the 50% inhibitory concentration (IC50) in the assay on Jurkat [5] is 11 µM; in assay [14], above 100 µM.

For the molecule `COc1cc(O)c2c(c1)/C=C\CCCC(=O)C[C@H](Br)C[C@H](C)OC2=O`, the IC50 came out at 24000 nM in [1], 7.5 µM in the assay with Jurkat [2], 81 µM in assay [3] and 6.1 µM with Jurkat [5].

For the molecule `COc1cc(O)c2c(c1)/C=C/CCCC(O)C[C@H](Cl)C[C@H](C)OC2=O` (some centres not stated), the result in the assay with HUVEC [16] and in the assay with HUVEC [17] was Active.

In the case of `COc1cc(O)c2c(c1)CCCCCC(=O)/C=C/C[C@H](C)OC2=O`, the result in the assay on HUVEC [18] and in the assay with HUVEC [19] was Active. For the same molecule, the IC50 in assay [1] is 310 nM; in the assay with Jurkat [2], 9.7 µM; in assay [6] it was 12 µM; in assay [7] it was 330 nM; in assay [3], 1.3 µM; in assay [11], above 100 µM. For the same molecule, the IC50 in assay [12] is above 100 µM; in assay [8], 33 µM; in [9], 89 nM; in assay [4], 720 nM; in the assay on Jurkat [5], 13 µM; in [14], above 100 µM.

With `COc1cc(O)c2c(c1)/C=C/CCCC(=O)C[C@H](Br)C[C@H](C)OC2=O`, the IC50 in assay [1] was above 100000 nM; in the assay with Jurkat [2], 9.7 µM; in [3], 2.8 µM; in [15] it was above 100 µM; with Jurkat [5] it was 11.7 µM.

For `COc1cc(O)c2c(c1)CCCCCC(=O)CCC[C@H](C)OC2=O`, the outcome in the assay with HUVEC [20] and in the assay on HUVEC [21] was inactive.

For the molecule `COc1cc(O)c2c(c1)CCCCCC(=O)C[C@H](Br)C[C@H](C)OC2=O`, the IC50 in [1] is 4300 nM; in the assay with Jurkat [2], 9.7 µM; in [3], 11 µM; in [8], above 100 µM; with Jurkat [5], 11.4 µM.

Take `COc1cc(O)c2c(c1)CCCCCC(=O)C[C@H](Cl)C[C@H](C)OC2=O`: the IC50 in assay [1] is 93000 nM; in the assay on Jurkat [2] it was 8.4 µM; in assay [3] it was 47 µM; with Jurkat [5] it was 10.6 µM.

As for `COc1cc(O)c2c(c1)/C=C\CCCC(=O)/C=C/C[C@H](C)OC2=O`, the half-inhibitory concentration (IC50) is 2300 nM in assay [1]; 15.4 µM in the assay with Jurkat [2]; above 100 µM in assay [6]; 590 nM in assay [7]; 1.4 µM in assay [3]; above 100 µM in assay [15]. The IC50 in [8] was 15 µM; in [9], 450 nM; in assay [4], 1600 nM; with Jurkat [5], 19.5 µM.

For orientation: IC50 means the concentration at which inhibition is half-maximal.
